US8435978B2, “Substituted sulfonamide compounds” (Gruenenthal GmbH, priority 2006, dated 2013)

Biological target: T1, B1R receptor of the rat (Rattus norvegicus, UniProt P97583)
T1 construct: host or cells: CHO K1 cells (Chinese hamster ovary), stably transfected
T1 sequence (P97583 1-337): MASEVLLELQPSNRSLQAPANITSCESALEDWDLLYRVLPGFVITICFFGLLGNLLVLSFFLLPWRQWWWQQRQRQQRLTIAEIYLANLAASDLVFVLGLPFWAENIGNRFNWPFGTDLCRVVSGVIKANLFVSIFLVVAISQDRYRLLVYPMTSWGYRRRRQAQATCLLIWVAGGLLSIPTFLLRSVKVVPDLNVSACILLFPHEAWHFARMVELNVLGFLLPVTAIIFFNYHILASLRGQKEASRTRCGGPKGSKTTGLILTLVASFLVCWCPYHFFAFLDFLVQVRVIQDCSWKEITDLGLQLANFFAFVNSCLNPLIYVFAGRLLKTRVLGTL
Test: Functional study on the bradykinin receptor 1 (B1R), FLIPR Ca2+ assay, rB1R cells
Type: cell-based
Details: test substance 10 μM; rB1R CHO K1 cells; agonist Des-Arg9-bradykinin 100 nM; % inhibition compared with the maximum achievable inhibition
Summary of the method: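 FLIPR Ca2+ read-out (Fluo-4, peak fluorescence) in stably transfected CHO K1 cells. Compounds at 10 μM, then 10 min later agonist challenge: human B1R with Lys-Des-Arg9-bradykinin 0.5 nM, rat B1R with Des-Arg9-bradykinin 100 nM; reported as % activation or % of maximal inhibition.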

B1R Antagonism, rat [10 μM] % Inhibition: 106.6%
SMILES: COc1cc(C)c(S(=O)(=O)N2CCCCC2COCC(=O)N2CCN(C3CCN(C)CC3)CC2)c(C)c1 (stereo not shown) [Example 8, 2-[1-(4-methoxy-2,6-dimethyl-phenylsulfonyl)-piperidin-2-ylmethoxy]-1-[4-(1-methyl-piperidin-4-yl)-piperazin-1-yl]-ethanone]
